Experiment: in vitro
Conditions: human, hela cells, % viability

Going from `Cc1cc(C)nc(NC(=O)NS(=O)(=O)Nc2ccccc2Cl)n1` [CBK260912] to `CC(=O)Nc1cc2nc3ccccc3nc2cc1NC(C)=O` [CBK261018], the viability at 28.5 h, 10 µM falls from 102% to 92.6%.

Going from `NCCC(O)(P(=O)(O)O)P(=O)(O)O` [CBK260913] to `O=C(O)CCC(CCC(=O)O)([N+](=O)[O-])[N+](=O)[O-]` [CBK260956], the viability at 28.5 h, 10 µM falls from 97.6% to 93.9%.

Going from `O=P(O)(CN1CCOCC1)CN1CCOCC1` [CBK260914] to `c1cncc(C(N2CCOCC2)N2CCOCC2)c1` [CBK260999], the viability at 28.5 h, 10 µM falls from 97.6% to 94.5%.

First: Cc1cccc(C)c1NC(=O)c1nccnc1C(=O)O [CBK260915]
Second: COc1ccc(C(=O)Nc2cccc3nsnc23)cc1OC [CBK260973]
The viability at 28.5 h, 10 µM of the first is higher: 97% for the first, 92.2% for the second.

Compared with `O=C(NCc1c(OC(=O)c2cccc([N+](=O)[O-])c2)ccc2ccccc12)c1ccccc1` [CBK260919], `O=C(NCc1c(O)c(Cl)cc(Cl)c1Cl)c1ccccc1` [CBK260920] is higher in viability at 28.5 h, 10 µM: 81.1% for the first, 94.2% for the second.

Compared with `NC(=O)N/N=C/c1ccncc1` [CBK260922], `Cc1nonc1NC(=O)Nc1ccncc1` [CBK260982] is lower in viability at 28.5 h, 10 µM: 107% for the first, 94.7% for the second.

Going from `O=C(O)/C=N/NC(=O)c1ccco1` [CBK260923] to `NC(=O)c1c(NC(=S)NC(NC(=O)c2ccco2)C(Cl)(Cl)Cl)sc2c1CCCC2` (centres unmarked) [CBK261055], the viability at 28.5 h, 10 µM rises from 89.5% to 103%.

First: Cc1ccc(CCC(=O)NNc2ccccc2)o1 [CBK260924]
Second: O=[N+]([O-])c1ccc(C(O)CNC(=S)Nc2ccccc2)cc1 (centres unmarked) [CBK261086]
The viability at 28.5 h, 10 µM of the first is lower: 90.5% for the first, 99.8% for the second.

Compared with `CO/N=C(/C(=O)O)c1cn2cc(Br)ccc2n1` [CBK260925G], `Cc1nc2cc(C(=O)O)ccc2n1CCO` [CBK260949] is higher in viability at 28.5 h, 10 µM: 87.2% for the first, 106% for the second.

First: C[N+](C)(C)c1ccc(C(=O)O)cc1 [CBK260929B]
Second: O=C(c1ccc(O)cc1)c1ccc(C(=O)O)c(C(=O)O)c1 [CBK261075]
The viability at 28.5 h, 10 µM of the first is lower: 90% for the first, 105% for the second.

First: CCC1=NN(c2ccccc2)C(=O)C(CC(=O)Nc2ccccc2)c2cc(OC)c(OC)cc21 (centres unmarked) [CBK260938]
Second: CC(C)(C)c1cc(C(=O)CSc2nnc(Nc3ccccc3)n2-c2ccccc2)cc(C(C)(C)C)c1O [CBK261033]
The viability at 28.5 h, 10 µM of the first is lower: 89% for the first, 94.1% for the second.

Going from `O=C(O)C1Cc2c([nH]c3ccccc23)C(c2cc(Br)ccc2O)N1` (centres unmarked) [CBK260946] to `Cc1ccc(S(=O)(=O)NC(Cc2c[nH]c3ccccc23)C(=O)O)cc1` (centres unmarked) [CBK260966], the viability at 28.5 h, 10 µM rises from 88.1% to 103%.

Compared with `Cc1sc2ccc(-c3ccccc3)cc2[n+]1CCCS(=O)(=O)[O-]` [CBK260947], `CCO/C(C)=C/c1sc2ccc3ccccc3c2[n+]1CCCS(=O)(=O)[O-]` [CBK260948] is higher in viability at 28.5 h, 10 µM: 90.7% for the first, 95.1% for the second.

Compared with `Cc1c[n+]2ccsc2n1Cc1ccccc1C#N` [CBK260951B], `COc1ccccc1NC(=O)C(C)N1C(=O)c2ccccc2C1=O` (centres unmarked) [CBK261043] is lower in viability at 28.5 h, 10 µM: 116% for the first, 92% for the second.

Going from `O=C1/C(=C2/Sc3ccccc3N2CCCS(=O)(=O)O)SC(=S)N1c1ccccc1` [CBK260954G] to `O=S(=O)([O-])CCC[n+]1c(/C=C/Nc2ccccc2)oc2ccc3ccccc3c21` [CBK261082], the viability at 28.5 h, 10 µM rises from 94.5% to 114%.

First: O=C(CNC(=O)c1ccccc1)N/N=C/c1ccc(Br)cc1 [CBK260957]
Second: O=C(O)c1cccc(/N=C/c2ccc(/C=N/c3cccc(C(=O)O)c3)cc2)c1 [CBK261088]
The viability at 28.5 h, 10 µM of the first is higher: 103% for the first, 92.3% for the second.

First: CC(C)(c1ccc(Oc2cccc(N)c2)cc1)c1ccc(Oc2cccc(N)c2)cc1 [CBK260958]
Second: CC(=O)Oc1cccc(N2C(=O)c3ccc(Oc4cccc(N)c4)cc3C2=O)c1 [CBK261099]
The viability at 28.5 h, 10 µM of the first is higher: 109% for the first, 96.4% for the second.

Compared with `O=C(O)c1ccc(Oc2ccc([N+](=O)[O-])cc2)cc1C(=O)O` [CBK260961], `O=C(O)c1cc(C(=O)O)c(-c2ccccc2)c(C(=O)O)c1` [CBK261101] is higher in viability at 28.5 h, 10 µM: 89% for the first, 93.7% for the second.

First: O=C1c2ccccc2C(=O)N1CCCN1CCN(CCCN2C(=O)c3ccccc3C2=O)CC1 [CBK260963]
Second: O=C(CCCN1C(=O)c2cccc3cccc(c23)C1=O)NO [CBK261092]
The viability at 28.5 h, 10 µM of the first is lower: 91.6% for the first, 92% for the second.

First: Cc1ccc(S(=O)(=O)NC(CO)C(=O)O)cc1 (centres unmarked) [CBK260965]
Second: O=C(O)CS(=O)(=O)c1ccccc1C(=O)O [CBK261083]
The viability at 28.5 h, 10 µM of the first is lower: 96% for the first, 98.9% for the second.

Going from `CN(C)Cc1cc(CN(C)C)c(O)c(C(C)(C)C)n1` [CBK260969] to `CC(C)(C)c1cc(CNCCS(=O)(=O)O)c(O)c(C(C)(C)C)c1` [CBK261098], the viability at 28.5 h, 10 µM rises from 90.6% to 107%.

First: O=C(O)c1c[nH]cn1 [CBK260978G]
Second: CC(=O)NC(Cc1c[nH]cn1)C(=O)O (centres unmarked) [CBK261105]
The viability at 28.5 h, 10 µM of the first is lower: 97% for the first, 101% for the second.

Compared with `CCOC(=O)/C(=N/O)C(=O)c1c[nH]c2ccccc12` [CBK260979], `CC(=O)Cc1ccccc1OCC(=O)O` [CBK261031] is lower in viability at 28.5 h, 10 µM: 96% for the first, 90.9% for the second.

First: CC(=O)Nc1ccc(NC(=O)CCCC(=O)O)cc1 [CBK260984]
Second: NS(=O)(=O)c1ccc(NC(=S)NC(=O)/C=C/c2ccco2)cc1 [CBK261066]
The viability at 28.5 h, 10 µM of the first is higher: 104% for the first, 93% for the second.

Compared with `N=C(N)SCP(=O)(c1ccccc1)c1ccccc1` [CBK260990], `CN=C(S)N=C(Nc1ccccc1)c1ccccc1` [CBK261037] is lower in viability at 28.5 h, 10 µM: 99.3% for the first, 89.1% for the second.

Going from `O=C(O)CCC(CCC(=O)O)C(=O)O` [CBK260994] to `O=C(O)C1CC1(C(=O)O)C(=O)O` (centres unmarked) [CBK261009], the viability at 28.5 h, 10 µM rises from 95.1% to 103%.

First: C[Si]1(C)O[Si](C)(C)O[Si](C)(CC[Si](C)(C)c2ccccc2)O[Si](C)(C)O1 [CBK260998]
Second: C[N+](C)(C)CCCCOC(c1ccccc1)c1ccccc1 [CBK261076I]
The viability at 28.5 h, 10 µM of the first is higher: 97% for the first, 94.1% for the second.

First: COc1ccc(C(N2CCOCC2)N2CCOCC2)cc1 [CBK261002]
Second: O=C(NC(N1CCOCC1)C(Cl)(Cl)Cl)c1ccc(Cl)cc1 (centres unmarked) [CBK261084]
The viability at 28.5 h, 10 µM of the first is higher: 102% for the first, 94.2% for the second.

Compared with `CNC(=O)N(O)C1N(NC(=O)Nc2ccccc2)C(=S)SC1(C)C` (centres unmarked) [CBK261005], `NC(CCCCNC(=O)c1ccccc1)C(=O)O` (centres unmarked) [CBK261087] is higher in viability at 28.5 h, 10 µM: 94.9% for the first, 97% for the second.

Compared with `O=[N+]([O-])c1ccc(NCCNCCO)c(Cl)c1` [CBK261006], `Cc1cc([N+](=O)[O-])cc[n+]1[O-]` [CBK261014] is higher in viability at 28.5 h, 10 µM: 97.5% for the first, 102% for the second.

First: CNc1c(C)cc([N+](C)(C)C)cc1C [CBK261007I]
Second: CN(C)C1=NC(N(C)C)=NP(N(C)C)(N(C)C)=N1 [CBK261057]
The viability at 28.5 h, 10 µM of the first is higher: 95.3% for the first, 91.8% for the second.

Compared with `c1ccc(Nc2[nH]nnc2-c2ccccc2)cc1` [CBK261015], `C(=N\Nc1ccc2nn(-c3ccccc3)nc2c1)/c1c[nH]c2ccccc12` [CBK261064] is lower in viability at 28.5 h, 10 µM: 116% for the first, 91.6% for the second.

Compared with `O=C(NC(N1CCCCC1)C(Cl)(Cl)Cl)NC(N1CCCCC1)C(Cl)(Cl)Cl` (centres unmarked) [CBK261020], `CC(=O)NC(NC(=S)Nc1sc2c(c1C#N)CCCC2)C(Cl)(Cl)Cl` (centres unmarked) [CBK261053] is higher in viability at 28.5 h, 10 µM: 98.2% for the first, 99.2% for the second.

Compared with `O=S(=O)(CCSc1ccc(Cl)cc1)Oc1ccccc1` [CBK261021], `O=S(=O)(Oc1ccc(-c2cnc3ccccc3n2)cc1)c1ccccc1` [CBK261104] is lower in viability at 28.5 h, 10 µM: 102% for the first, 93.4% for the second.

Going from `CC(C)(C)C(=O)NC(N(Cc1ccccc1)Cc1ccccc1)C(Cl)(Cl)Cl` (centres unmarked) [CBK261023] to `O=C(Cc1cccc2ccccc12)NC(NC(=S)Nc1ccccc1Br)C(Cl)(Cl)Cl` (centres unmarked) [CBK261094], the viability at 28.5 h, 10 µM rises from 97.7% to 106%.

Compared with `CCCC(=O)NC(NC(=S)Nc1ccccc1Cl)C(Cl)(Cl)Cl` (centres unmarked) [CBK261026], `CC(C)C(=O)NC(NC(=S)Nc1cccc2cccnc12)C(Cl)(Cl)Cl` (centres unmarked) [CBK261051] is lower in viability at 28.5 h, 10 µM: 106% for the first, 90% for the second.

First: COc1ccc(C(=O)NC(NC(=S)Nc2cccc3cccnc23)C(Cl)(Cl)Cl)cc1 (centres unmarked) [CBK261028]
Second: NC(=O)c1c(NC(=S)NC(NC(=O)c2ccccc2)C(Cl)(Cl)Cl)sc2c1CCCC2 (centres unmarked) [CBK261048]
The viability at 28.5 h, 10 µM of the first is higher: 94.6% for the first, 90.6% for the second.

Going from `NC(=O)COc1ccccc1OCC(N)=O` [CBK261032] to `Cc1cccc(N(CC(=O)O)CC(=O)O)c1` [CBK261103], the viability at 28.5 h, 10 µM rises from 87.5% to 93.2%.

Going from `c1ccc2sc(CCSCCc3nc4ccccc4s3)nc2c1` [CBK261036] to `c1ccc2c(c1)nnn2CNCn1nnc2ccccc21` [CBK261114], the viability at 28.5 h, 10 µM falls from 104% to 85.4%.

Compared with `FC(F)(F)C1=NC(C(F)(F)F)=NP(N2CCOCC2)(N2CCOCC2)=N1` [CBK261042], `Cc1[nH]c(=O)[nH]c(=O)c1S(=O)(=O)N1CCOCC1` [CBK261060] is higher in viability at 28.5 h, 10 µM: 94.3% for the first, 96.1% for the second.

Going from `Cc1ccc(C(=O)NNC(=O)c2cccnc2)cc1` [CBK261045] to `CCN(CC(O)COc1ccc2ccccc2c1)S(=O)(=O)O` (centres unmarked) [CBK261113K], the viability at 28.5 h, 10 µM falls from 94% to 87.2%.

First: Cc1ccccc1C(=O)NC(NC(=S)Nc1sc2c(c1C(N)=O)CCCC2)C(Cl)(Cl)Cl (centres unmarked) [CBK261047]
Second: CC(=O)NC(NC(=S)Nc1sc2c(c1C(N)=O)CCCC2)C(Cl)(Cl)Cl (centres unmarked) [CBK261054]
The viability at 28.5 h, 10 µM of the first is lower: 97.9% for the first, 101% for the second.

Compared with `CC(C)CC(=O)NC(N=C(S)Nc1sc2c(c1C#N)CCCC2)C(Cl)(Cl)Cl` (centres unmarked) [CBK261049], `Cc1ccc(CCSCC(=O)O)cn1` [CBK261072] is higher in viability at 28.5 h, 10 µM: 85.2% for the first, 95.3% for the second.

Compared with `CC(=O)OC(C(=O)O)C(OC(C)=O)C(=O)O` (centres unmarked) [CBK261063], `O=C(O)c1ccccc1-n1c(=O)c2cc3c(=O)n(-c4ccccc4C(=O)O)c(=O)c3cc2c1=O` [CBK261097] is lower in viability at 28.5 h, 10 µM: 95.5% for the first, 87.5% for the second.

First: NCCCCCCNC(=O)c1c(O)c2ccccc2oc1=O [CBK261071]
Second: CCC(/C=C1\Oc2ccc(OC)cc2N1C)=C\c1sc2ccccc2[n+]1CCCS(=O)(=O)[O-] [CBK261080]
The viability at 28.5 h, 10 µM of the first is higher: 97.9% for the first, 90.3% for the second.

First: O=[N+]([O-])c1ccc(O)c(/C=N/c2ccc(Oc3ccc(/N=C/c4cc([N+](=O)[O-])ccc4O)cc3)cc2)c1 [CBK261093]
Second: Oc1ccccc1/C=N/CC(O)C/N=C/c1ccccc1O [CBK261112]
The viability at 28.5 h, 10 µM of the first is lower: 96.7% for the first, 103% for the second.

Source: paper PMC12040169 (PLOS Biology, 2025)
